In this assay the target is Aβ42 (Homo sapiens, UniProt P05067). The experiment in a line: Thioflavin T aggregation assay, […] h at […]°C. The assay is classed as biochemical.

The term IC50 denotes the point on the concentration scale where inhibition reaches its midpoint. The low end stands for inhibition by little substance, the high end for a need for much substance.

Sequence of Aβ42 (P05067 672-713): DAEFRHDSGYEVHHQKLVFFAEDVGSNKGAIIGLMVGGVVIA

`CC1=C(/C=C/C(C)=C/C=C/C(C)=C/C=C/C=C(C)/C=C/C=C(C)/C=C/C(=O)[C@]2(C)C[C@@H](O)CC2(C)C)C(C)(C)CCC1` [cryptocapsin] returned an IC50 of 1970 nM.
The same measure for `CC1=C(/C=C/C(C)=C/C=C/C(C)=C/C=C/C=C(C)/C=C/C=C(C)/C=C/C2=C(C)C[C@@H](O)CC2(C)C)C(C)(C)C[C@H](O)C1` [zeaxanthin]: 2290 nM.

Values taken from PMC5440000 (Clinical Interventions in Aging, 2017).
